pIC50: −log10 of the molar value. Converted amounts (≈) assume the structure as drawn. Read-outs that look alike come from different tables or passages of the source.

Experimental findings from patent US9498463B2, “Compound obtained from gamboge resin, and medical uses of the same” (priority 2010, dated 2016) are described below.

Common to all, as to assay: cells
The subject of series [1] is Human breast adenocarcinoma cell MCF7. As to conditions: for IC50: Homo sapiens, MCF7, read-out: IC50 (50% inhibition concentration), MCF-7. An excerpt:
(§1) In Vitro Anti-Cancer Test
(§2) The in vitro anti-cancer test was primarily used to detect the effect of a candidate drug on cancer cell proliferation. The working principle involved therein is the ability of viable cells to shift alamarBlue (AbD Serotec, UK) from its originally non-fluorescent oxidized state (non-fluorescent, blue) to a reduced form (fluorescent, red) having fluorescence via metabolic reaction. According to the fluorescent data result generated by the alamarBlue reagent thus obtained, the proliferation of the viable cells and cell activity can be quantified for detection.
(§3) In the in vitro anti-cancer tests, a candidate drug was tested at 5 different concentrations of 0.01, 0.1, 1, 10, and 100 μg/ml, and six human cancer cell lines and a normal human cell line were used (see Table 5).

The subject of series [2] is Human umbilical venal epithelial cell (HUVEC). The conditions noted are these: HUVEC; for IC50: Homo sapiens, read-out: IC50 (50% inhibition concentration), HUVEC, normal human cell line; for LC50 (50% lethal concentration): normal human cell line.
Excerpt: as §1, §2, §3

The subject of series [3] is Human histocytic lymphoma cell U937. The conditions noted are these: U-937, read-out: IC50 (50% inhibition concentration), U937.
Excerpt: as §1, §2, §3

In series [4] the test system is Human promyelocytic leukemia cell HL-60. The conditions noted are these: HL-60, read-out: IC50 (50% inhibition concentration), HL-60.
Excerpt: as §1, §2, §3

Series [5] has as its system Human colon adenocarcinoma cell HT-29. As to conditions: HT-29, read-out: IC50 (50% inhibition concentration), HT-29.
Excerpt: as §1, §2, §3

Series [6] relates to Human hepatocellular carcinoma cell HepG2. As to conditions: HepG2, read-out: IC50 (50% inhibition concentration), HepG2.
Excerpt: as §1, §2, §3

Series [7] deals with Human lung carcinoma cell A549. As to conditions: A549, read-out: IC50 (50% inhibition concentration), A549.
Excerpt: as §1, §2, §3

In the case of `CC(C)=CCc1c2c(c(O)c3c1O[C@]14C(=C[C@@H]5CC1C(C)(C)OC4(C/C=C(/C)C(=O)O)C5=O)C3=O)C=C[C@](C)(CCC(O)C(C)(C)O)O2` (stereo partly drawn) [Gh-3271, 2-butenoic acid, 2-methyl-4-[(1R,3aS,5S,11S,14aS)-3a,4,5,7-tetrahydro-8-hydroxy-3,3,11-trimethyl-13-(3-methyl-2-butenyl)-11-(3,4-dihydroxy-4-methylpentyl)-7,15-dioxo-1,5-methano-1H,3H,11H-furo[3.4-g]pyrano[3.2-b]xanthen-1-yl]-,(2Z)-], the IC50 in series [1] turned out to be 0.16 µg/mL; in series [2], 0.42 µg/mL (≈ 0.634 µM); in series [3], 0.11 µg/mL (≈ 0.166 µM); in series [4], 3 µg/mL (≈ 4.53 µM); in series [5], 1.8 µg/mL (≈ 2.72 µM); in series [6] it was 0.46 µg/mL (≈ 0.694 µM). For the same compound, the IC50 in series [7] was found to be 0.25 µg/mL (≈ 0.377 µM).

On to `CC(C)=CCc1c2c(c(O)c3c1O[C@]14C(=C[C@@H]5CC1C(C)(C)OC4(C/C=C(/C)C(=O)O)C5=O)C3=O)C=C[C@@](C)(C/C=C/C(C)(C)O)O2` [Gh-3272, 2-butenoic acid, 2-methyl-4-[(1R,3aS,5S,11R,14aS)-3a,4,5,7-tetrahydro-8-hydroxy-3,3,11-trimethyl-13-(3-methyl-2-butenyl)-11-(4-hydroxy-4-methyl-2E-pentenyl)-7,15-dioxo-1,5-methano-1H,3H,11H-furo[3.4-g]pyrano[3.2-b]xanthen-1-yl]-,(2Z)-], for which the “LC50 (50% lethal concentration)” value in series [2] was found to be 2.5 µg/mL (≈ 3.88 µM).

As for `CC(C)=CCC[C@@]1(C)C=Cc2c(O)c3c(c(C(O)C4OC4(C)C)c2O1)O[C@]12C(=C[C@@H]4CC1C(C)(C)OC2(C/C=C(/C)C(=O)O)C4=O)C3=O` (stereo partly drawn) [Gh-3311, 2-butenoic acid, 2-methyl-4-[(1R,3aS,5S,11S,14aS)-3a,4,5,7-tetrahydro-8-hydroxy-3,3,11-trimethyl-13-(1-hydroxy-2,3-epoxy-3-methylbutyl)-11-(4-methyl-3-pentenyl)-7,15-dioxo-1,5-methano-1H,3H,11H-furo[3.4-g]pyrano[3.2-b]xanthen-1-yl]-,(2Z)-], in series [2], the “LC50 (50% lethal concentration)” value came to 13.9 µg/mL (≈ 21 µM).

Turning to `C=C(C)C1CC[C@@]2(C)Oc3c(CC=C(C)C)c4c(c(O)c3[C@@H]1C2O)C(=O)C1=C[C@@H]2CC3C(C)(C)OC(C/C=C(/C)C(=O)O)(C2=O)[C@@]13O4` (stereo in doubt) [Gh-1050, 2-butenoic acid, 2-methyl-4-[(1R,3aS,5S,9R,10S,13R,16aS,17S)-3a,4,5,7,10,11,12,13-octahydro-8,17-dihydroxy-3,3,13-trimethyl-15-(3-methyl-2-butenyl)-10-(1-methylethenyl)-7,18-dioxo-1,5:9,13-dimethano-1H,3H,9H-furo[3.4-g]oxocino[3.2-b]xanthen-1-yl]-,(2Z)-], the “LC50 (50% lethal concentration)” value in series [2] is 3.4 µg/mL (≈ 5.27 µM).

Regarding `C=C(C)C(O)CC[C@]1(C)C=Cc2c(O)c3c(c(CC=C(C)C)c2O1)O[C@]12C(=C[C@@H]4CC1C(C)(C)OC2(C/C=C(/C)C(=O)O)C4=O)C3=O` (stereo partly drawn) [Gh-3291, 2-butenoic acid, 2-methyl-4-[(1R,3aS,5S,11R,14aS)-3a,4,5,7-tetrahydro-8-hydroxy-3,3,11-trimethyl-13-(3-methyl-2-butenyl)-11-(3-hydroxy-4-methyl-4-pentenyl)-7,15-dioxo-1,5-methano-1H,3H,11H-furo[3.4-g]pyrano[3.2-b]xanthen-1-yl]-,(2Z)-], the “LC50 (50% lethal concentration)” value in series [2] came to 1.4 µg/mL (≈ 2.17 µM).

In the case of `CC(C)=CCC[C@]1(C)C=Cc2c(O)c3c(c(CC4OC4(C)C)c2O1)O[C@]12C(=C[C@@H]4CC1C(C)(C)OC2(C/C=C(/C)C(=O)O)C4=O)C3=O` (stereo partly drawn) [Gh-3352, 2-butenoic acid, 2-methyl-4-[(1R,3aS,5S,11R,14aS)-3a,4,5,7-tetrahydro-8-hydroxy-3,3,11-trimethyl-13-(2,3-epoxy-3-methylbutyl)-11-(4-methyl-3-pentenyl)-7,15-dioxo-1,5-methano-1H,3H,11H-furo[3.4-g]pyrano[3.2-b]xanthen-1-yl]-,(2Z)-], the “LC50 (50% lethal concentration)” value in series [2] is 0.85 µg/mL (≈ 1.32 µM).

Consider `CC(C)=CCc1c2c(c(O)c3c1O[C@]14C(=C[C@@H]5CC1C(C)(C)OC4(C/C=C(\C)C(=O)O)C5=O)C3=O)C=CC(C)(C/C=C\C(C)(C)O)O2` (stereo in doubt) [Gh-3332, 2-butenoic acid, 2-methyl-4-[(1R,3aS,5S,14aS)-3a,4,5,7-tetrahydro-8-hydroxy-3,3,11-trimethyl-13-(3-methyl-2-butenyl)-11-(4-hydroxy-4-methyl-2Z-pentenyl)-7,15-dioxo-1,5-methano-1H,3H,11H-furo[3.4-g]pyrano[3.2-b]xanthen-1-yl]-,(2E)-], for which the “LC50 (50% lethal concentration)” value in series [2] came to 3.3 µg/mL (≈ 5.12 µM).

With `CC(C)=CCC[C@]1(C)C=Cc2c(O)c3c(c(C(O)C4OC4(C)C)c2O1)O[C@]12C(=C[C@@H]4CC1C(C)(C)OC2(C/C=C(/C)C(=O)O)C4=O)C3=O` (stereo partly drawn) [Gh-3353, 2-butenoic acid, 2-methyl-4-[(1R,3aS,5S,11R,14aS)-3a,4,5,7-tetrahydro-8-hydroxy-3,3,11-trimethyl-13-(1-hydroxy-2,3-epoxy-3-methylbutyl)-11-(4-methyl-3-pentenyl)-7,15-dioxo-1,5-methano-1H,3H,11H-furo[3.4-g]pyrano[3.2-b]xanthen-1-yl]-,(2Z)-], the “LC50 (50% lethal concentration)” value in series [2] was found to be 8.4 µg/mL (≈ 12.7 µM).

Turning to `CC(C)=CCC[C@@]1(C)Oc2c(c(O)c3c(c2CC=C(C)C)O[C@]24C(=C[C@@H]5CC2C(C)(C)OC4(C/C=C(/C)C(=O)O)C5=O)C3=O)C[C@H]1O` (stereo in doubt) [Gh-1631, 2-butenoic acid, 2-methyl-4-[(1R,3aS,5S,10R,11R,14aS)-3a,4,5,7,10,11-hexahydro-8,10-dihydroxy-3,3,11-trimethyl-13-(3-methyl-2-butenyl)-11-(4-methyl-3-pentenyl)-7,15-dioxo-1,5-methano-1H,3H,9H-furo[3.4-g]pyrano[3.2-b]xanthen-1-yl]-,(2Z)-], the IC50 in series [1] turned out to be 0.14 µg/mL; in series [2], 0.58 µg/mL (≈ 0.897 µM); in series [3], 0.18 µg/mL (≈ 0.278 µM); in series [4], 0.19 µg/mL (≈ 0.294 µM); in series [5], 6.1 µg/mL (≈ 9.43 µM); in series [6], 0.85 µg/mL (≈ 1.31 µM). For the same compound, the IC50 in series [7] was determined as 0.14 µg/mL (≈ 0.216 µM).

Take `CC(C)=CCC[C@@]1(C)C=Cc2c(O)c3c(c(CC4OC4(C)C)c2O1)O[C@]12C(=C[C@@H]4CC1C(C)(C)OC2(C/C=C(/C)C(=O)O)C4=O)C3=O` (stereo partly drawn) [Gh-3351, 2-butenoic acid, 2-methyl-4-[(1R,3aS,5S,11S,14aS)-3a,4,5,7-tetrahydro-8-hydroxy-3,3,11-trimethyl-13-(2,3-epoxy-3-methylbutyl)-11-(4-methyl-3-pentenyl)-7,15-dioxo-1,5-methano-1H,3H,11H-furo[3.4-g]pyrano[3.2-b]xanthen-1-yl]-,(2Z)-]: in series [2], the “LC50 (50% lethal concentration)” value stood at 3.3 µg/mL (≈ 5.12 µM).

Turning to `CC(C)=CCc1c2c(c(O)c3c1O[C@]14C(=C[C@@H]5CC1C(C)(C)OC4(C/C=C(/C)C(=O)O)C5=O)C3=O)C=C[C@@](C)(CCC(O)C(C)(C)O)O2` (stereo partly drawn) [Gh-3261, 2-butenoic acid, 2-methyl-4-[(1R,3aS,5S,11R,14aS)-3a,4,5,7-tetrahydro-8-hydroxy-3,3,11-trimethyl-13-(3-methyl-2-butenyl)-11-(3,4-dihydroxy-4-methylpentyl)-7,15-dioxo-1,5-methano-1H,3H,11H-furo[3.4-g]pyrano[3.2-b]xanthen-1-yl]-,(2Z)-], the IC50 was 0.36 µg/mL in series [1]; 0.29 µg/mL (≈ 0.438 µM) in series [2]; 0.11 µg/mL (≈ 0.166 µM) in series [3]; 1.9 µg/mL (≈ 2.87 µM) in series [4]; 1.1 µg/mL (≈ 1.66 µM) in series [5]; 1 µg/mL (≈ 1.51 µM) in series [6]. Besides, the IC50 in series [7] was 0.19 µg/mL (≈ 0.287 µM).

On to `CC(C)=CCC[C@]1(C)C=Cc2c(O)c3c(c(CC(O)C(C)(C)O)c2O1)O[C@]12C(=C[C@@H]4CC1C(C)(C)OC2(C/C=C(/C)C(=O)O)C4=O)C3=O` (stereo partly drawn) [Gh-1052, 2-butenoic acid, 2-methyl-4-[(1R,3aS,5S,11R,14aS)-3a,4,5,7-tetrahydro-8-hydroxy-3,3,11-trimethyl-13-(2,3-dihydroxy-3-methylbutyl)-11-(4-methyl-3-pentenyl)-7,15-dioxo-1,5-methano-1H,3H,11H-furo[3.4-g]pyrano[3.2-b]xanthen-1-yl]-,(2Z)-], for which the IC50 in series [1] came to 0.52 µg/mL; in series [2], 0.47 µg/mL (≈ 0.709 µM); in series [3] it was 0.22 µg/mL (≈ 0.332 µM); in series [4], 0.23 µg/mL (≈ 0.347 µM); in series [5] it was 1.6 µg/mL (≈ 2.41 µM); in series [6], 1.2 µg/mL (≈ 1.81 µM). In addition, the IC50 in series [7] stood at 0.46 µg/mL (≈ 0.694 µM).

`CC(C)=CCC[C@@]1(C)C=Cc2c(O)c3c(c(CC(O)C(C)(C)O)c2O1)O[C@]12C(=C[C@@H]4CC1C(C)(C)OC2(C/C=C(/C)C(=O)O)C4=O)C3=O` (stereo partly drawn) [Gh-1036, 2-butenoic acid, 2-methyl-4-[(1R,3aS,5S,11S,14aS)-3a,4,5,7-tetrahydro-8-hydroxy-3,3,11-trimethyl-13-(2,3-dihydroxy-3-methylbutyl)-11-(4-methyl-3-pentenyl)-7,15-dioxo-1,5-methano-1H,3H,11H-furo[3.4-g]pyrano[3.2-b]xanthen-1-yl]-,(2Z)-]: the IC50 in series [1] is 0.35 µg/mL; in series [2] it was 0.46 µg/mL (≈ 0.694 µM); in series [3] it was 0.29 µg/mL (≈ 0.438 µM); in series [4], 0.45 µg/mL (≈ 0.679 µM); in series [5], 1.4 µg/mL (≈ 2.11 µM); in series [6], 0.88 µg/mL (≈ 1.33 µM). Also, the IC50 in series [7] was found to be 0.22 µg/mL (≈ 0.332 µM).

Regarding `CO[C@@]12[C@H](COC(N)=O)C3=C(C(=O)C(C)=C(N)C3=O)N1C[C@@H]1N[C@@H]12` [Mitomycin, mitomycin, reference compound], in series [1] (read-out: IC50 (50% inhibition concentration), MCF-7, positive control), the pIC50 was 6.82.
